Laboratory results taken from ChEMBL document CHEMBL1201862, “PubChem BioAssay data set” (2004).
Active and inactive are the calls of the source.

What was measured:
Protein skinhead-1 = target: T1, Protein skinhead-1 (Caenorhabditis elegans, UniProt P34707); format: functional
T1 sequence (P34707 whole entry): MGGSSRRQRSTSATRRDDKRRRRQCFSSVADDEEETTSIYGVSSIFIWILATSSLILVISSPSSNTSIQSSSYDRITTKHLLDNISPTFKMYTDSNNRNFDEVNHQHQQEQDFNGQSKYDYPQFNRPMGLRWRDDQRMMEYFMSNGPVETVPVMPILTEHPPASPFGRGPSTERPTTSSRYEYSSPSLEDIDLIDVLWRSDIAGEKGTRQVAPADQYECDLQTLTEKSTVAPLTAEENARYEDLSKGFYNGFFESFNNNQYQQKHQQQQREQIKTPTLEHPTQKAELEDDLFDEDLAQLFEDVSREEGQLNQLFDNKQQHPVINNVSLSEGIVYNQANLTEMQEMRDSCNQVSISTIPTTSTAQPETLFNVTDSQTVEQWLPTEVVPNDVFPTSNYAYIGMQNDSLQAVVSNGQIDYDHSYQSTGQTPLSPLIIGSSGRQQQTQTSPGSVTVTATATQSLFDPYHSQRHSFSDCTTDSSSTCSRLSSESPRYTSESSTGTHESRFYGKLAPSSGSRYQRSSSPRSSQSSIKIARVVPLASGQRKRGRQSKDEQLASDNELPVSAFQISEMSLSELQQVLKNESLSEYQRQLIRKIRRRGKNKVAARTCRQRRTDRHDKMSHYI

Fatty acid synthase [1] = target: T2, Fatty acid synthase (Homo sapiens, UniProt P49327); test: inhibition of human FAS-TE enzyme activity – biochemical, endpoint fluorescence intensity, uHTS hits, dose response (AID 624327); format: functional;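 note: fluorescence from hydrolysis of an O-methyl fluorescein acyl ester substrate by the enzyme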
T2 sequence (P49327 whole entry): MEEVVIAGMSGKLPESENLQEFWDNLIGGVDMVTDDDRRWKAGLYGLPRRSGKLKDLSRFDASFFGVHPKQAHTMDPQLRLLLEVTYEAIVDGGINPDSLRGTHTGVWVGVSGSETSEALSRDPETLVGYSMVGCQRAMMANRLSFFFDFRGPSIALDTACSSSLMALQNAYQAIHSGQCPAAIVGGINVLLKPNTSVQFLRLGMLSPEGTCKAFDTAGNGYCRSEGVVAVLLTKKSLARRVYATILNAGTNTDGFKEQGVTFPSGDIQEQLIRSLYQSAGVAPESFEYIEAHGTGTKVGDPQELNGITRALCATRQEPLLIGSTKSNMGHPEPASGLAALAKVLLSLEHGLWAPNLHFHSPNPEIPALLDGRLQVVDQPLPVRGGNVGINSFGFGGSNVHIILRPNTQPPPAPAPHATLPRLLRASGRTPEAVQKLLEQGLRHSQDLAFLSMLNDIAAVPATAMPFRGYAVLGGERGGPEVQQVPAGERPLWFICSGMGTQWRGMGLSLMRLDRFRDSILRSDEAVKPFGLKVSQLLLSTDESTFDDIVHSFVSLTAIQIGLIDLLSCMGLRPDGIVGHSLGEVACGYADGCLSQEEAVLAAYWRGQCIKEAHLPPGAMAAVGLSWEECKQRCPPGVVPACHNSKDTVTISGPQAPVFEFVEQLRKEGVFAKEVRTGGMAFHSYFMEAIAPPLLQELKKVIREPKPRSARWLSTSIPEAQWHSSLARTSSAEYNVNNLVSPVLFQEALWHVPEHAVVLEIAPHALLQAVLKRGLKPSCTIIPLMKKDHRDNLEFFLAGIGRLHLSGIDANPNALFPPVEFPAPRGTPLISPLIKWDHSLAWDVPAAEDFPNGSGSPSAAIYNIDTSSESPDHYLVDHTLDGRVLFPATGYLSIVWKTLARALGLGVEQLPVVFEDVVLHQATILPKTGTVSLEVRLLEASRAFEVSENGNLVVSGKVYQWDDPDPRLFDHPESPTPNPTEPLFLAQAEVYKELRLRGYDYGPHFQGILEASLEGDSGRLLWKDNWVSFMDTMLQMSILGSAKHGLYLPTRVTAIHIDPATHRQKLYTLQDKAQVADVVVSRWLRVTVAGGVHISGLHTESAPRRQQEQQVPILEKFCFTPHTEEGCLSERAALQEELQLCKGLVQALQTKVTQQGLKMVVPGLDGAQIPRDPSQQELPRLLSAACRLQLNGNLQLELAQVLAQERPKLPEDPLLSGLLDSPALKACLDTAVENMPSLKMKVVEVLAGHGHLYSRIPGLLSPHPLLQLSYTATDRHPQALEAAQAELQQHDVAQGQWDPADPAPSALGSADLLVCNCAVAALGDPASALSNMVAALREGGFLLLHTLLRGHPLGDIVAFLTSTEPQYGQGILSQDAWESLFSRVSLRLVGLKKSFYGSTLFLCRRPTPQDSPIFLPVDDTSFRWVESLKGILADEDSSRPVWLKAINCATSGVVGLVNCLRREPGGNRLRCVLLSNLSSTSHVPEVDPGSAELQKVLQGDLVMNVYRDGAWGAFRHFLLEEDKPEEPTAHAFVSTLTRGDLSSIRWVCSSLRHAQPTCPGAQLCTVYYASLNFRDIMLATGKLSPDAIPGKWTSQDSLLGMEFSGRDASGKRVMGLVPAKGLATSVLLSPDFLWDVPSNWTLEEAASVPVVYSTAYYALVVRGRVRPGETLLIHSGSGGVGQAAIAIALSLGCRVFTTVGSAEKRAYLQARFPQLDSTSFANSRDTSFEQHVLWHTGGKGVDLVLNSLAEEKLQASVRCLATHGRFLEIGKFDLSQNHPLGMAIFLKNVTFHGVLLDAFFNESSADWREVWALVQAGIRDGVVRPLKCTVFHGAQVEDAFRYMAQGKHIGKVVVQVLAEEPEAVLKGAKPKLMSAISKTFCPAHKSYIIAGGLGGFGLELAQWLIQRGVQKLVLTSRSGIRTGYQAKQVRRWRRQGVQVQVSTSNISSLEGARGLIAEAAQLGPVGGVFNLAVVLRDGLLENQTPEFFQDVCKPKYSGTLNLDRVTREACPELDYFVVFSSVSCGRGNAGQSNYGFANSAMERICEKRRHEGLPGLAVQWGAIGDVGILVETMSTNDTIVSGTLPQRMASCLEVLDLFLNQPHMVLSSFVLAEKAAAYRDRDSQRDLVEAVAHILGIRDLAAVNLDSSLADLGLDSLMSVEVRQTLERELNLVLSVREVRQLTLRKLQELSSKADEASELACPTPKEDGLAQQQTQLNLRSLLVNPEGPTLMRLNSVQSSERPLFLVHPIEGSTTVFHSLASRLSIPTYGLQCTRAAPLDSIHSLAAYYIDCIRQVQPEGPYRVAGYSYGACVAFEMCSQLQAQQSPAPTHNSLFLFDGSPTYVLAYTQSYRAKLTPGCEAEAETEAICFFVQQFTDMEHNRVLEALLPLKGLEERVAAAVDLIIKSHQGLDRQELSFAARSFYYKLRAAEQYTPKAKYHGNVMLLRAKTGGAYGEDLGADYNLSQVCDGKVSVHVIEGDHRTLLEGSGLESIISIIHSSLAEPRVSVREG

Fatty acid synthase [2] = target: T2, Fatty acid synthase; test: inhibition of human FAS-TE enzyme activity – biochemical, kinetic fluorescence intensity, dose response (AID 624326); format: functional;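 note: rate of fluorescence rise from hydrolysis of a fluorogenic O-methyl fluorescein ester substrate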
Nonstructural protein 1 = Nonstructural protein 1 (Influenza A virus, UniProt Q194T2); format: functional, Influenza A virus (A/California/07/2009(H1N1))
Chain of Nonstructural protein 1 (Q194T2 whole entry): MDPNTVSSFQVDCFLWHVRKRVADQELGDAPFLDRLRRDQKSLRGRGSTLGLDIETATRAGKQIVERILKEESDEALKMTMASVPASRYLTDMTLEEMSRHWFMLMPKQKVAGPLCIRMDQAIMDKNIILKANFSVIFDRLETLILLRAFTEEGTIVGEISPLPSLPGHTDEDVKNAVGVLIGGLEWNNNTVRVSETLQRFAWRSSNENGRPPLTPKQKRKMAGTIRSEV

[3] = luciferase reporter signal suppression in cells – H4 neuroglioma cells, luminescence, dose response (AID 1990); format: functional, cell-based
[4] = Luminescence Cell-Based Dose Response HTS to Identify Inhibitors of 5'UTR Stem-Loop Driven Prion Protein mRNA Translation in H4 Neuroglioblastoma Cells. [Related pubchem assays: 1827 (Project Summary), 1813 (Primary HTS)]; format: functional
[5] = alpha-synuclein stem-loop luciferase translation blockers – H4 neuroglioma cells, luminescence, confirmation (AID 1988); format: functional, cell-based
Vero = test: cells; format: functional; conditions: Chlorocebus sabaeus
[6] = microbe, parasite or virus in culture; format: functional; conditions: Mycobacterium tuberculosis
[7] = reduction of Shn3 3'UTR-driven luciferase in osteoblasts – cell-based, Clone20 osteoblasts, firefly luciferase, cherry-picked, dose response (AID 624132); format: functional;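 note: firefly luciferase luminescence from reporter carrying the Shn3 3'UTR in osteoblasts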
[8] = loss of viability in HepG2 cells – cell-based, CellTiter-Glo, cherry-picked, cytotoxicity control for Shn3 inhibitor project, dose response (AID 624134); format: functional
[9] = non-specific 3'UTR reporter inhibition in Clone20-Shn3RL – cell-based, Renilla luciferase, cherry-picked, counter-screen for Shn3 inhibitor project, dose response (AID 624133); format: functional
[10] = viability of uninfected HEp-2 cells – cell-based, HTS, cytotoxicity control for RSV inhibitor project, dose response (AID 2410); format: functional; conditions: human respiratory syncytial virus
Cytochrome P450 2C19 = Cytochrome P450 2C19 (Homo sapiens, UniProt P33261); test: Cytochrome panel assay with activity outcomes. Panel member name: p450-cyp2c19 Compounds with AC50 equal or less than 10 uM are considered active; format: functional; conditions: read-out: AC50
Chain of Cytochrome P450 2C19 (P33261 whole entry, the tested form may be a part): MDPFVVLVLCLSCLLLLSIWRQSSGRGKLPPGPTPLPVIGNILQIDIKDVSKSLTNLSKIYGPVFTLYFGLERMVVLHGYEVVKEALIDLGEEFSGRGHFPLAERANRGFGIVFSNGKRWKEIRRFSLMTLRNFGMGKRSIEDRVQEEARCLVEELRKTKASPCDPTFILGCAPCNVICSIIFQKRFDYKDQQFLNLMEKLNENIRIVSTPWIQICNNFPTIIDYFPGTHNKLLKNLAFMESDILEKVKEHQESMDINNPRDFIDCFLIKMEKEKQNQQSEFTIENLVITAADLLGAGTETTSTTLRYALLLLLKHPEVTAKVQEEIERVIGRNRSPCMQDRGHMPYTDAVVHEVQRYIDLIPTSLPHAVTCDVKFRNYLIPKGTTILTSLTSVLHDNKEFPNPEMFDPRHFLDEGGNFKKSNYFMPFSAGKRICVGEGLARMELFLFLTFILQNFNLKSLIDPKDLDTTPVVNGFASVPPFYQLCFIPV

[11] = blockers of HIV-1 envelope-mediated cell-cell fusion – cherry-pick, dose response (AID 652057); format: functional, cell-based
[12] = blockers of HIV-1 ZM109 envelope-driven cell-cell fusion – HeLa effector, CEM target cells, luciferase, cherry-pick, dose response (AID 652058); format: functional, cell-based;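 note: luciferase signal from HIV-1 Env mediated cell-cell fusion of effector and target cells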
[13] = HIV-1 AD8 envelope cell-cell fusion blockers – cherry-pick, dose response (AID 652062); format: functional, cell-based;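 note: luciferase signal from cell-cell fusion driven by HIV-1 clade B AD8 Env; potency is for inhibitors of fusion seen as a drop in luminescence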
[14] = viability of PTEN-deleted HCT116 cells – cell-based, HCT116 PTEN knockout, dose response (AID 1047); format: functional;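 note: HCT116 colon tumor cells with PTEN knocked out; cells exposed to compound for 60 hours before readout; potency for loss of cell viability measured by luminescence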
[15] = viability of HCT116 lacking mutant beta-catenin – cell-based, human colon tumor, dose response (AID 1045); format: functional;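 note: HCT116 colon tumor cells with beta catenin knocked out; cells exposed to compound for 60 hours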
[16] = target: T3, Replicative DNA helicase DnaB (Mycobacterium tuberculosis, UniProt P9WMR3); test: DnaB intein splicing inhibitors, dose response, biochemical, cell-free fluorescence (AID 449749); format: functional
T3 sequence (P9WMR3 whole entry): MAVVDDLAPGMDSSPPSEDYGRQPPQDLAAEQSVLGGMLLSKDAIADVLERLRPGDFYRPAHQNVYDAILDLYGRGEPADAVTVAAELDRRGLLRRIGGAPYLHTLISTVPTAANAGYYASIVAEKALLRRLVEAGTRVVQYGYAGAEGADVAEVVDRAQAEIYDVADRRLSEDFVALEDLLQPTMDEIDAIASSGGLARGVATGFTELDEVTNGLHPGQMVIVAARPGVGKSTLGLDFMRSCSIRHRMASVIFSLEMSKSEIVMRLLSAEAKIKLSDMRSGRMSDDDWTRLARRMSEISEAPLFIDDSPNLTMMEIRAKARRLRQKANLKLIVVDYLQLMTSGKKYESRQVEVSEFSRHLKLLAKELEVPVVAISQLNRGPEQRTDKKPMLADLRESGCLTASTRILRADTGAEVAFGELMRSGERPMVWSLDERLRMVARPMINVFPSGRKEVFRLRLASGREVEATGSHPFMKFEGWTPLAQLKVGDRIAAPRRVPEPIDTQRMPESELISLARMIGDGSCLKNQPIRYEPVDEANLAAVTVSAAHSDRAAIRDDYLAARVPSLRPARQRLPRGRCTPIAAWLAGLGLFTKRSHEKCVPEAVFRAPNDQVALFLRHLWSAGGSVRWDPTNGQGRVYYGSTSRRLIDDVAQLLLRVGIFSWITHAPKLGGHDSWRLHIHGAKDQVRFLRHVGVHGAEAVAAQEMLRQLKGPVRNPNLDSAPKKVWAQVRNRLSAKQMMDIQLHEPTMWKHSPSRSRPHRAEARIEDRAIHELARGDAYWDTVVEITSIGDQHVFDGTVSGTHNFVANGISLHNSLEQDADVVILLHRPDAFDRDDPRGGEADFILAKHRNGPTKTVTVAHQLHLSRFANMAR

Protein RecA = target: T4, Protein RecA (Mycobacterium tuberculosis, UniProt P9WHJ3); test: Fluorescence Cell-Free Homogeneous Dose Retest to Identify Inhibitors of RecA-Intein Splicing Activity. [Related pubchem assays (depositor defined):AID2097, AID2223, AID489010, AID492950]; format: functional
T4 sequence (P9WHJ3 whole entry): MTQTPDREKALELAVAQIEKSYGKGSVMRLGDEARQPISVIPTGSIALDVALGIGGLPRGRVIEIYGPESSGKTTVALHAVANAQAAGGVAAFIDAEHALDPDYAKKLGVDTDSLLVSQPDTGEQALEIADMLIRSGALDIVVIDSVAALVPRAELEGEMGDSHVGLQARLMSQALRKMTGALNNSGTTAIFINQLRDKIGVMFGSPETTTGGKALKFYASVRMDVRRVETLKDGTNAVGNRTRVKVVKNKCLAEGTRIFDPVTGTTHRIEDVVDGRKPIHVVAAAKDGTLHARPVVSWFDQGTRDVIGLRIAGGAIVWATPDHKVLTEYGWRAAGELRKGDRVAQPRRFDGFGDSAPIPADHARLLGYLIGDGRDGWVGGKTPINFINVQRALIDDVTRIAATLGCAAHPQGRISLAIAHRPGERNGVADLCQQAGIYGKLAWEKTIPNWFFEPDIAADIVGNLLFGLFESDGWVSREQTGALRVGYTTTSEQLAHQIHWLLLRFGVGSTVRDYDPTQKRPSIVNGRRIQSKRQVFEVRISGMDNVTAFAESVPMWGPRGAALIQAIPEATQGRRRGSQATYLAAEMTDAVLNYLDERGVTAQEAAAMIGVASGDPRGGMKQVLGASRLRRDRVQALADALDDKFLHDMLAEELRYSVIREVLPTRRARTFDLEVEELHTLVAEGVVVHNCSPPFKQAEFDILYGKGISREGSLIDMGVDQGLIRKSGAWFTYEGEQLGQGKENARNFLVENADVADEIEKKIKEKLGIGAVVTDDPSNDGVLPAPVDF

Clc1ccc(-c2cn3c(n2)-c2ccccc2C3)cc1Cl
IC50 (Protein skinhead-1): > 100 µM (inactive)

Cc1ccc(-c2csc(-c3ccncc3)n2)cc1
IC50 (Protein skinhead-1): 65.2 µM (inactive)

O=C(NC1CC1)c1cc(-c2ccc(Br)cc2)nc2ccccc12
IC50 (Protein skinhead-1): > 100 µM (inactive)

O=C1CC(c2cccc([N+](=O)[O-])c2)c2c(ccc3ccccc23)N1 (stereo not drawn)
IC50 (Fatty acid synthase [1]): 52.2 µM (inactive)
IC50 (Fatty acid synthase [2]): 56.4 µM (inactive)

Cc1cc(C)c2cc(C#N)c(N3CCCC3)nc2c1
IC50 (Protein skinhead-1): > 100 µM (inactive)

CCN(Cc1ccccc1)c1ccc(N=Nc2nn(C)c(C)c2[N+](=O)[O-])cc1
IC50 (Nonstructural protein 1): 9.29 µM (active)
IC50 (Fatty acid synthase [1]): 13.9 µM (active)
IC50 (Fatty acid synthase [2]): 7.95 µM (active)

N#Cc1cc(C(=O)c2ccccc2OCC(=O)Nc2ccccc2Cl)cn(C2CCCCC2)c1=O
EC50 [3]: 22 µM (active)
EC50 [4]: > 120 µM (not active)
EC50 [5]: > 120 µM (not active)

COc1ccccc1N1CCN(CC(O)c2c(C)[nH]c3ccccc23)CC1 (stereo not drawn)
CC50 (Vero): > 25 µM (active)

Cc1c(NC(=O)CCC2CCCCC2)cc(C(=O)N2CCOCC2)cc1[N+](=O)[O-]
EC50 [3]: > 120 µM (not active)
EC50 [4]: > 120 µM (not active)
EC50 [5]: > 120 µM (not active)

COC(=O)c1c(NC(=O)CCl)sc(C(=O)N2CCOCC2)c1C
CC50 [6]: 16.4 µM (active)

Cc1ccc(C)c(S(=O)(=O)N2CCN(C(=O)C3CCN(c4ncnc5sc(C)c(C)c45)CC3)CC2)c1
AC50 [7]: 2.82 µM (active)
AC50 [8]: > 70 µM (inactive)
AC50 [9]: 2.29 µM (active)

Cc1cc2c(=O)oc(-c3ccccc3Br)nc2s1
IC50 (Fatty acid synthase [1]): 7.57 µM (active)
IC50 (Fatty acid synthase [2]): 8.01 µM (active)

CCN(CC)S(=O)(=O)c1ccc(C2=NOC3(C2)N(C)c2ccccc2C3(C)C)cc1 (stereo not drawn)
CC50 [10]: > 50 µM (active)
EC50 [3]: > 120 µM (not active)
EC50 [4]: 29 µM (active)
EC50 [5]: 0.516 µM (active)

C=CCn1c(SCc2cc(=O)n3ccsc3n2)nc2sc(C)c(C)c2c1=O
EC50 [3]: 15.3 µM (active)
EC50 [4]: > 120 µM (not active)
EC50 [5]: > 120 µM (not active)

CC(=O)Nc1sc(/C(C#N)=C\c2cccc(Cl)c2)nc1-c1ccc(C)cc1
IC50 (Protein skinhead-1): > 100 µM (inactive)

Clc1ccc2oc(-c3cccnc3)nc2c1
AC50 (Cytochrome P450 2C19): 14.1 µM (inconclusive)
IC50 (Protein skinhead-1): 29 µM (active)

COc1cccc(-n2c(CN3CCN(c4ccccn4)CC3)nc3ccc([N+](=O)[O-])cc3c2=O)c1
IC50 (Fatty acid synthase [1]): 3.23 µM (active)
IC50 (Fatty acid synthase [2]): 3.67 µM (active)

O=[N+]([O-])c1ccc(C2CC(c3ccccc3)=Nc3ccccc3S2)cc1 (stereo not drawn)
CC50 [6]: 37.4 µM (active)

O=C(Nc1ccc(C2CC2(Cl)Cl)cc1)c1ccccc1Br (stereo not drawn)
IC50 (Protein skinhead-1): 70 µM (inactive)

CC(C)C[C@H]1CN([C@@H](CC(C)C)CN2CCCC2CN2C(=S)NC[C@@H]2Cc2ccc(O)cc2)C(=S)N1CC1CCCCCC1 (stereo partly drawn)
CC50 (Vero): 20.9 µM (active)

Cc1ccc(OCCNC(=O)CNC(=O)c2ccc(Cl)c([N+](=O)[O-])c2)cc1
IC50 (Fatty acid synthase [1]): 8.99 µM (active)
IC50 (Fatty acid synthase [2]): 9.71 µM (active)

O=C(CN1CCCC1c1cccs1)Nc1cc(S(=O)(=O)N2CCCCC2)ccc1Cl (stereo not drawn)
AC50 [7]: 14.4 µM (active)
AC50 [8]: 60.5 µM (active)
AC50 [9]: 6.82 µM (active)

Cn1nc(C(C)(C)C)cc1C(=O)N1CCCCC1c1cc(C(=O)Nc2cccc3c2CCCC3)no1 (stereo not drawn)
AC50 [7]: 10.2 µM (active)
AC50 [8]: 62.8 µM (active)
AC50 [9]: 16.5 µM (active)

COC(=O)C1=C(c2ccc(OCc3ccccc3)cc2)C[C@@H]2CC[C@H]1N2C(=O)NCc1ccc(C(C)(C)C)cc1
AC50 [7]: 6.84 µM (active)
AC50 [8]: > 70 µM (inactive)
AC50 [9]: 1.63 µM (active)

O=C(Nc1cccc(C(=O)O)c1)/C(=C\c1cccc([N+](=O)[O-])c1)NC(=O)c1ccc(Br)cc1
IC50 (Fatty acid synthase [1]): 4.62 µM (active)
IC50 (Fatty acid synthase [2]): 5.19 µM (active)

O=C(C[C@H]1C=C[C@@H](NC(=O)Nc2ccccc2F)[C@@H](CO)O1)NCc1ccc(-c2ccccc2)cc1
AC50 [11]: < 0.26 µM (active)
AC50 [12]: < 0.26 µM (active)
AC50 [13]: < 0.26 µM (active)

Cc1ccc(S(=O)(=O)Nc2ccc3c(c2)CC(=O)N([C@@H](C)CO)C[C@H](C)[C@H](CN(C)S(=O)(=O)c2ccccc2)O3)cc1
AC50 [11]: 14.7 µM (active)
AC50 [12]: 15.5 µM (active)
AC50 [13]: 34.2 µM (active)

C[C@H](CO)N1C[C@H](C)[C@H](CN(C)S(=O)(=O)c2ccccc2)Oc2ccc(NC(=O)Cn3cnnn3)cc2CC1=O
AC50 [11]: 13.5 µM (active)
AC50 [12]: 2.07 µM (active)
AC50 [13]: 20.3 µM (active)

Clc1ccc(Sc2oc(/C=N/n3cnnc3)cc2Br)cc1
EC50 [14]: 15.2 µM (active)
EC50 [15]: 43.8 µM (active)
AC50 [16]: 2 µM (active)
EC50 (Protein RecA): 8.65 µM (active)
